Measured values as given in ChEMBL document CHEMBL3864168, “Imidazopyridazine Inhibitors of PI3Kβ” (ACS Med Chem Lett, 2016).

Key:
[1] = target: Phosphatidylinositol 4,5-bisphosphate 3-kinase catalytic subunit alpha isoform (Homo sapiens, UniProt P42336); experiment: Binding affinity to human PI3Kalpha (108 to 1068 residues) expressed in mammalian expression system by KINOMEscan assay
[2] = target: Phosphatidylinositol 4,5-bisphosphate 3-kinase catalytic subunit gamma isoform (Homo sapiens, UniProt P48736); experiment: Binding affinity to human PI3Kgamma (144 to 1102 residues) expressed in mammalian expression system by KINOMEscan assay
[3] = target: T1, Phosphatidylinositol 4,5-bisphosphate 3-kinase catalytic subunit beta isoform (Homo sapiens, UniProt P42338); experiment: Inhibition of PI3Kbeta in human PC3 cells assessed as suppression of AKT phosphorylation at Ser473 after 60 mins by ELISA; type: cell-based, PC-3
[4] = target: T1, Phosphatidylinositol 4,5-bisphosphate 3-kinase catalytic subunit beta isoform; experiment: Inhibition of PI3Kbeta in human PC3 cells assessed as suppression of AKT phosphorylation at Thr308 after 60 mins by ELISA; type: cell-based, PC-3
[5] = target: Serine/threonine-protein kinase mTOR (Homo sapiens, UniProt P42345); experiment: Binding affinity to human MTOR (1382 to 2549 residues) expressed in mammalian expression system by KINOMEscan assay
[6] = target: T2, Phosphatidylinositol 4,5-bisphosphate 3-kinase catalytic subunit delta isoform (Homo sapiens, UniProt O00329); experiment: Binding affinity to human PI3Kdelta (108 to 1044 residues) expressed in mammalian expression system by KINOMEscan assay
T2 sequence (O00329 whole entry): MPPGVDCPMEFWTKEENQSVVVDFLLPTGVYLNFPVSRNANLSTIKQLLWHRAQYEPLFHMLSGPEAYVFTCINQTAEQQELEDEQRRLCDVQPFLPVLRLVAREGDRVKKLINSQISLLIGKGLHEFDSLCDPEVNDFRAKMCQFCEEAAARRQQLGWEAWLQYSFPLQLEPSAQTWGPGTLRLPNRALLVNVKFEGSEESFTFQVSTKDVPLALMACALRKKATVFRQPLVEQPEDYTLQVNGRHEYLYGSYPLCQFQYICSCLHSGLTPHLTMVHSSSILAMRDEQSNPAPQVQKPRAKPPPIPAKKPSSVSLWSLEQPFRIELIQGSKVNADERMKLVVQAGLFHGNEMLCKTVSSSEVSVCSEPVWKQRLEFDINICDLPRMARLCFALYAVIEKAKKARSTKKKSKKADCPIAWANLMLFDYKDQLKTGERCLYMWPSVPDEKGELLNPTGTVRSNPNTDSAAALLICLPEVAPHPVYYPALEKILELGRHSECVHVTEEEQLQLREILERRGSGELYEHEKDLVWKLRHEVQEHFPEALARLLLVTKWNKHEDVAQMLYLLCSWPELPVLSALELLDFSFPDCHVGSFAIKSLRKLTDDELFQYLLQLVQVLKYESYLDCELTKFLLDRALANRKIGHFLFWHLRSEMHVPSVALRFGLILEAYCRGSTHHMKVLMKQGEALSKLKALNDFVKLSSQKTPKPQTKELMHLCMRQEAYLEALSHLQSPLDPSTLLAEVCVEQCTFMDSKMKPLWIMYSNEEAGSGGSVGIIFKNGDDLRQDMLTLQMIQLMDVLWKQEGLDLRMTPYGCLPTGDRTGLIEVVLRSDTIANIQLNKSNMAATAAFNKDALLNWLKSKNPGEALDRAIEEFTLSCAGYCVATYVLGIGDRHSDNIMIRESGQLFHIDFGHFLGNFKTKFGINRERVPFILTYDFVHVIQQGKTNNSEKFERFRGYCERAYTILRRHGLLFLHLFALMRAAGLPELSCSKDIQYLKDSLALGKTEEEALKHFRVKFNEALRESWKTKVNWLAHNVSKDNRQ

[7] = target: T1, Phosphatidylinositol 4,5-bisphosphate 3-kinase catalytic subunit beta isoform; experiment: Binding affinity to human PI3Kbeta (118 to 1070 residues) expressed in mammalian expression system by KINOMEscan assay

T1 sequence (P42338 whole entry, canonical isoform): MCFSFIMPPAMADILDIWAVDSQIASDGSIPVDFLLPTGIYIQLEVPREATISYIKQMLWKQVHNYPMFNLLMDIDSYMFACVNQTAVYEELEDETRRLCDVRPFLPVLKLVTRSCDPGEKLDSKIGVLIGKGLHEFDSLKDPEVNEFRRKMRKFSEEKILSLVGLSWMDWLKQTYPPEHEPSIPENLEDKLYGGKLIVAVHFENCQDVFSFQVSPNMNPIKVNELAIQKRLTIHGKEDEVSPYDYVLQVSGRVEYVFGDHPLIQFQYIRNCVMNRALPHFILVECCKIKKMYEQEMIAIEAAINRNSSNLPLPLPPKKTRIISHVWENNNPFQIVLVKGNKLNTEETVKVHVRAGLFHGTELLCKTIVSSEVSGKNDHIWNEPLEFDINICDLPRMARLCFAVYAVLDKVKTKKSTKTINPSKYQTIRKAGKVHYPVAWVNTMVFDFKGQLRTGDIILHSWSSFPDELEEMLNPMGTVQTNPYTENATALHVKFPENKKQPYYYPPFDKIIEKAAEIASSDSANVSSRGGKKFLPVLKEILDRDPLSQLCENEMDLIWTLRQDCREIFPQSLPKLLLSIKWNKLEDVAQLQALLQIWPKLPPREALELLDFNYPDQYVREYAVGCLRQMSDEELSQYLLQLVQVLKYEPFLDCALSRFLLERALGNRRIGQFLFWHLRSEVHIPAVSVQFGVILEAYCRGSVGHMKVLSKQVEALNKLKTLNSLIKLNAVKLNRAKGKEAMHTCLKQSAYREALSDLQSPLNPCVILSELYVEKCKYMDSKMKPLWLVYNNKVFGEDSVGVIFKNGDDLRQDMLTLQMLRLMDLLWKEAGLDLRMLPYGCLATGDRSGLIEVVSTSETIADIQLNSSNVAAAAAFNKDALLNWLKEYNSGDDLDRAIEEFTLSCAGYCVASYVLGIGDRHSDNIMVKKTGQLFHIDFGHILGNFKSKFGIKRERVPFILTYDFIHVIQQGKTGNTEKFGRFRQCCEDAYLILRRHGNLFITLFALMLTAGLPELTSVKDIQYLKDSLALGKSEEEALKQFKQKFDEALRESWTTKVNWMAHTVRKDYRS
Sequence of Phosphatidylinositol 4,5-bisphosphate 3-kinase catalytic subunit alpha isoform (P42336 whole entry, the tested form may be a part, canonical isoform): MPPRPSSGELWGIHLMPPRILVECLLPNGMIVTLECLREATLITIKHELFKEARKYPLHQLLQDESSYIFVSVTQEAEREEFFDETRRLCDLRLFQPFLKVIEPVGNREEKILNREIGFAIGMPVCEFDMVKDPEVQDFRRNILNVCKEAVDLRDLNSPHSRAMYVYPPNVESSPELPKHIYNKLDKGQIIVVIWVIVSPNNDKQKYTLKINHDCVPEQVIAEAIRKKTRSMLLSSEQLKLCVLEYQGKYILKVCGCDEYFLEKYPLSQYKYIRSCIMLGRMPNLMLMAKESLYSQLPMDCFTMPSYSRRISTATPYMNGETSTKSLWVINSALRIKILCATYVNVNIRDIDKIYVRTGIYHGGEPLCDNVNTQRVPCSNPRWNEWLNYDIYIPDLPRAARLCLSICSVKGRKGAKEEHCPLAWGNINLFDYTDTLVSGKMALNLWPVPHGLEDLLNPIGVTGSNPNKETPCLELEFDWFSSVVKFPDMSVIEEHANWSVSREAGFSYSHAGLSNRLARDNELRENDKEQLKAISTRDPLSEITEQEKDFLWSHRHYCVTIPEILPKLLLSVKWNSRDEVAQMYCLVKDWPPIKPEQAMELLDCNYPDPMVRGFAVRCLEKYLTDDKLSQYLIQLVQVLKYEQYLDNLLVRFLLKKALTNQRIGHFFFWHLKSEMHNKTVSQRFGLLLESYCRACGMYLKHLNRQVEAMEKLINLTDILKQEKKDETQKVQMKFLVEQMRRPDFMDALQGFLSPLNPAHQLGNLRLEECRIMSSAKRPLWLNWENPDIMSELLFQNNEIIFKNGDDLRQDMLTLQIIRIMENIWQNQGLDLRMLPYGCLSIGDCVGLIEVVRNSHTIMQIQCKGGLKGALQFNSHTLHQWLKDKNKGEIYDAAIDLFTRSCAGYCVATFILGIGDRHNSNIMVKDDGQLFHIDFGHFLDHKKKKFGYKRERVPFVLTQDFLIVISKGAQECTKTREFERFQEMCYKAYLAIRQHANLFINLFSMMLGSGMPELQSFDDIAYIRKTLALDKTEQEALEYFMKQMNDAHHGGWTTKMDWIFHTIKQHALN
Sequence of Phosphatidylinositol 4,5-bisphosphate 3-kinase catalytic subunit gamma isoform (P48736 whole entry, the tested form may be a part, canonical isoform): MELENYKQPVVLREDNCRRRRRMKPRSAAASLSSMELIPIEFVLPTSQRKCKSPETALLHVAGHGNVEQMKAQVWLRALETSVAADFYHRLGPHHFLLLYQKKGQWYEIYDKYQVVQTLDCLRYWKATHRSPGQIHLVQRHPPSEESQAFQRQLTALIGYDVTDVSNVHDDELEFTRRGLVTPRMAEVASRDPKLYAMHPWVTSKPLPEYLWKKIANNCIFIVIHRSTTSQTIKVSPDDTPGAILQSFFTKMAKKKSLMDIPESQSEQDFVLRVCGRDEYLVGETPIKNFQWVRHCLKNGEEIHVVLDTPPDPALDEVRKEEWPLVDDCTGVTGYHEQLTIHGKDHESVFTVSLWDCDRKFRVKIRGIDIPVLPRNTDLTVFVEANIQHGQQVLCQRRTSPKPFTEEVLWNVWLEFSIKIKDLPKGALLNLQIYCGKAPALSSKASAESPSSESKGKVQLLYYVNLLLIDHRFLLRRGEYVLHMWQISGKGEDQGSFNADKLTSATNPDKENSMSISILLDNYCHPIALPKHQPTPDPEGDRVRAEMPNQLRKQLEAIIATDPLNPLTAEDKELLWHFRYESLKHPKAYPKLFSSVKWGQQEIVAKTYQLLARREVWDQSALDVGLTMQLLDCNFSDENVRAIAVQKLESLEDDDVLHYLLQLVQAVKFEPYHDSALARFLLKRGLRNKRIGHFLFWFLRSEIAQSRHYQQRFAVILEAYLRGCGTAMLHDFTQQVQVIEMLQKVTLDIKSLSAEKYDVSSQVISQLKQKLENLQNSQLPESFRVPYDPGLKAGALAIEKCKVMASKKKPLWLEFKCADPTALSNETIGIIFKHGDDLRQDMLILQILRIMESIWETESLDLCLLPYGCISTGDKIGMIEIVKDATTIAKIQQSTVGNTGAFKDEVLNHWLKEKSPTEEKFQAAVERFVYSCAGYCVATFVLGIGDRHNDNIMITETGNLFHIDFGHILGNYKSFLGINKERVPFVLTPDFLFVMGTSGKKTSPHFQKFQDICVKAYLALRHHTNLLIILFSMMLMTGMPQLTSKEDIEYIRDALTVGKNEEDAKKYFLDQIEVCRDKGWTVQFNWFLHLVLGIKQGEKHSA

SMILES: Cc1c(Cc2c(CO)nc3c(N)cc(N4CCOCC4)nn23)cccc1C(F)(F)F [listing 1 of 2 here]
- Kd [1]: > 30.2 µM
- Kd [2]: > 10 µM
- IC50 [3]: 0.046 µM
- IC50 [4]: 0.038 µM

SMILES: Cc1c(Cc2c(CN(C)CCS(C)(=O)=O)nc3c(N)cc(N4CCOCC4)nn23)cccc1C(F)(F)F
- Kd [2]: > 30.2 µM
- IC50 [3]: 0.034 µM
- IC50 [4]: 0.041 µM

SMILES: CC(=O)NCc1nc2c(-c3cnc[nH]3)cc(N3CCOCC3)nn2c1Cc1cccc(C(F)(F)F)c1C
- Kd [1]: > 30.2 µM
- Kd [5]: > 30.2 µM
- Kd [2]: > 30.2 µM
- IC50 [3]: 0.033 µM
- Kd [6]: 0.059 µM
- IC50 [4]: 0.011 µM
- Kd [7]: 0.002 µM

SMILES: Cc1c(Cc2c(CNCCS(C)(=O)=O)nc3c(N)cc(N4CCOCC4)nn23)cccc1C(F)(F)F
- Kd [2]: > 30.2 µM
- IC50 [3]: 0.138 µM
- IC50 [4]: 0.186 µM

SMILES: Cc1nc2c(C(N)=O)cc(N3CCOCC3)nn2c1Cc1cccc(C(F)(F)F)c1C
- Kd [1]: > 30.2 µM
- Kd [5]: > 30.2 µM
- Kd [2]: > 30.2 µM
- IC50 [3]: 0.501 µM
- IC50 [4]: > 0.513 µM

SMILES: Cc1nc2c(-c3cnc[nH]3)cc(N3CCOCC3)nn2c1Nc1cccc(C(F)(F)F)c1C
- Kd [1]: 0.912 µM
- Kd [5]: 4.68 µM
- Kd [2]: 2.29 µM
- IC50 [3]: 0.012 µM
- Kd [6]: 0.049 µM
- IC50 [4]: 0.008 µM
- Kd [7]: 0.0026 µM

SMILES: Cc1nc2c(N)cc(N3CCOCC3)nn2c1Nc1cccc(C(F)(F)F)c1CN1CC(O)C1
- Kd [5]: > 30.2 µM
- Kd [2]: 19.6 µM
- IC50 [3]: 0.044 µM
- Kd [6]: 0.073 µM
- IC50 [4]: 0.033 µM

SMILES: Cc1nc2c(N)cc(N3CCOCC3)nn2c1Nc1cccc(C(F)(F)F)c1CN1CCN(C)CC1
- IC50 [3]: 0.021 µM
- IC50 [4]: 0.017 µM

SMILES: Cc1c(Cc2c(CO)nc3c(N)cc(N4CCOCC4)nn23)cccc1C(F)(F)F [listing 2 of 2 here]
- IC50 [3]: 0.052 µM
- IC50 [4]: 0.041 µM

SMILES: Cc1nc2c(C(=O)O)cc(N3CCOCC3)nn2c1Cc1cccc(C(F)(F)F)c1C
- IC50 [3]: 0.513 µM
- IC50 [4]: 0.316 µM

SMILES: Cc1c(Cc2c(CO)nc3c(C(=O)O)cc(N4CCOCC4)nn23)cccc1C(F)(F)F
- Kd [2]: > 15.1 µM
- IC50 [3]: > 0.513 µM
- IC50 [4]: > 0.513 µM

SMILES: Cc1nc2c(N)cc(N3CCOCC3)nn2c1Cc1cccc(C(F)(F)F)c1C
- Kd [1]: 5.13 µM
- Kd [5]: 20.3 µM
- Kd [2]: 11.4 µM
- IC50 [3]: 0.012 µM
- Kd [6]: 0.171 µM
- IC50 [4]: 0.017 µM
- Kd [7]: 0.006 µM

SMILES: Cc1nc2c(-c3cnc[nH]3)cc(N3CCOCC3)nn2c1Nc1cccc(C(F)(F)F)c1CN1CC(O)C1
- IC50 [3]: 0.174 µM
- IC50 [4]: 0.017 µM

SMILES: Cc1nc2c(-c3cnc[nH]3)cc(N3CCOCC3)nn2c1Cc1cccc(C(F)(F)F)c1C
- IC50 [3]: 0.059 µM
- IC50 [4]: 0.048 µM

SMILES: Cc1c(Nc2c(CO)nc3c(N)cc(N4CCOC(CO)C4)nn23)cccc1C(F)(F)F (stereo in doubt; 65)
- Kd [1]: 6.61 µM
- Kd [5]: 0.355 µM
- Kd [2]: 0.692 µM
- IC50 [3]: 0.079 µM
- Kd [6]: 0.138 µM
- IC50 [4]: 0.043 µM
- Kd [7]: 0.0013 µM

SMILES: Cc1c(Nc2c(CO)nc3c(N)cc(N4CCOC(CO)C4)nn23)cccc1C(F)(F)F (stereo in doubt; 66)
- Kd [1]: > 30.2 µM
- Kd [5]: 1.38 µM
- Kd [2]: 13.5 µM
- IC50 [3]: > 0.513 µM
- Kd [6]: 11 µM
- IC50 [4]: 0.513 µM
- Kd [7]: 0.138 µM
